Laboratory results as given in patent US9555038B2, “Heterocycle-substituted tetracyclic compounds and methods of use thereof for the treatment of viral diseases” (Merck Sharp & Dohme Corp., priority 2013, dated 2017).

System: HCV replicon 2B
Assay: Cell-based HCV Replicon Assay A, replicon 2B
Conditions: Hepatitis C virus, read-out: 2B IC50 (nM), replicon 2B
Protocol: (§1) To measure cell-based anti-HCV activity of compounds of the present invention, two complimentary assays were employed using various replicons. In the first assay (“Replicon Assay A”), replicon cells were seeded at 2000 cells/well in 384-well 384-well flat bottom tissue culture treated clear bottom plate (Corning 3707) in the presence of the test compound. Various concentrations of test compound, typically in 10 serial dilutions, were added to the assay mixture, with the starting concentration ranging from 333.3 nM to […]. The final concentration of DMSO was 0.5%. Fetal bovine serum was 5%, in the assay media. Cells were harvested on day 3 by removing media and washing the cells with a suitable wash buffer. The cells are lysed with the addition of 1× Qiagen lysis buffer (Cat #1062731). The replicon RNA level was measured using real time PCR (TaqMan® EZ RT-PCR, Applied Biosystems 403028) with the following primers and probes: […]
(§2) Cyclophilin RNA was used as endogenous control and was amplified in the same reaction as NS5B (multiplex PCR). The real-time RT-PCR reactions were run on ABI PRISM 7900HT Sequence Detection System using the following program: 50° C. for 2 minutes, 60° C. for 30 minutes, 95° C. for 5 minutes, 40 cycles of 94° C. for 20 sec, 55° C. for 1 minutes.
(§3) The amount of HCV replicon RNA per cell is quantified using a linear regression curve for a known nanogram (ng) amount of HCV replicon total RNA. This is established by plotting the Cycle Threshold values (Ct) from the Neo probe and primer set versus the log (ng) for each HCV replicon total RNA standard. The amount of HCV RNA for each replicon sample is calculated by taking the sample's Ct value, minus the line intercept, divided by the slope of the line. Similarly, the amount of Cyclophilin mRNA per cell is also quantified using a linear regression curve for a known nanogram (ng) amount of HCV replicon total RNA. Again, this is established by plotting the Cycle Threshold values (Ct) from the Cyclophilin probe and primer set versus the log (ng) for each HCV replicon total RNA standard.
(§4) Data was obtained for various compounds of the present invention using the methods described in the Example above, and is presented in the table immediately below. Data for replicons 1A, 1AY93H and 2B were obtained using Replicon Assay A and data for replicons 1AQ30D and 1B were obtained using Replicon Assay B.

Question: With `COC(=O)N[C@H](C(=O)N1CCC[C@H]1c1ncc(-c2cc(F)c3c(c2)OC(c2nnc(C)s2)n2c-3cc3cc(-c4cnc([C@@H]5CCCN5C(=O)[C@@H](NC(=O)OC)C(C)C)[nH]4)ccc32)[nH]1)C(C)C` (single isomer, unassigned) [Compound 6] as the molecule, how does the IC50 read?
Answer: The IC50 was 1.75 nM.

Question: `CCCc1ncc(C2Oc3cc(-c4cnc([C@@H]5CCCN5C(=O)[C@@H](NC(=O)OC)C(C)C)[nH]4)cc(C)c3-c3cc4cc(-c5cnc([C@@H]6CCCN6C(=O)C(NC(=O)OC)C6CCOC(C)(C)C6)[nH]5)ccc4n32)s1` (single isomer, unassigned) [Compound 226] was tested. Which IC50 did it give?
Answer: The IC50 was 0.005 nM.

Question: How did the IC50 turn out when `COC(=O)NC(C(=O)N1[C@@H]2C[C@@H]2C[C@H]1c1ncc(-c2ccc3c(c2)cc2n3C(c3cnc(C4CC4)s3)Oc3cc(-c4cnc([C@@H]5CCCN5C(=O)[C@@H](NC(=O)OC)C(C)C)[nH]4)cc(C)c3-2)[nH]1)C1CCOC(C)(C)C1` (single isomer, unassigned) [Compound 227] was run?
Answer: Its IC50 is 0.016 nM.

Question: For `COC(=O)N[C@H](C(=O)N1CCC[C@H]1c1ncc(-c2cc(F)c3c(c2)OC(c2cnc(-c4ccc(C)o4)s2)n2c-3cc3cc(-c4cnc([C@@H]5CCCN5C(=O)[C@@H](NC(=O)OC)C(C)C)[nH]4)ccc32)[nH]1)C(C)C` (single isomer, unassigned) [Compound 412], which IC50 is on record?
Answer: Its IC50 is 0.12 nM.

Same assay, conditions: read-out: 2B IC50, replicon 2B

Question: Which IC50 does the source give for `COC(=O)N[C@H](C(=O)N1CCC[C@H]1c1ncc(-c2cc(F)c3c(c2)OC(c2cncs2)n2c-3cc3cc(-c4cnc([C@@H]5CCCN5C(=O)[C@@H](NC(=O)OC)C(C)C)[nH]4)ccc32)[nH]1)C(C)C` (single isomer, unassigned) [Compound 1] here?
Answer: Its IC50 is 0.88 nM.

Question: How did the IC50 turn out when `COC(=O)N[C@H](C(=O)N1CCC[C@H]1c1ncc(-c2cc(F)c3c(c2)OC(c2nnc(C)s2)n2c-3cc3cc(-c4cnc([C@@H]5CCCN5C(=O)[C@@H](NC(=O)OC)C(C)C)[nH]4)ccc32)[nH]1)C(C)C` (single isomer, unassigned) [Compound 5] was run?
Answer: Its IC50 is 3.06 nM.

Question: Which IC50 does the source give for `COC(=O)NC(C(=O)N1[C@@H]2C[C@@H]2C[C@H]1c1ncc(-c2ccc3c(c2)cc2n3C(c3cnc(C(C)(C)C)s3)Oc3cc(-c4cnc([C@@H]5CCCN5C(=O)[C@@H](NC(=O)OC)C(C)C)[nH]4)cc(F)c3-2)[nH]1)C1CCOC(C)(C)C1` (single isomer, unassigned) [Compound 329] here?
Answer: Its IC50 is 0.16 nM.

Question: For `COC(=O)NC(C(=O)N1[C@@H]2C[C@@H]2C[C@H]1c1ncc(-c2ccc3c(c2)cc2n3C(c3cnc(C(C)(C)C)s3)Oc3cc(-c4cnc([C@@H]5CCCN5C(=O)[C@@H](NC(=O)OC)C(C)C)[nH]4)cc(F)c3-2)[nH]1)C1CCOC(C)(C)C1` (single isomer, unassigned) [Compound 330], which IC50 is on record?
Answer: Its IC50 is 0.016 nM.

Question: `COC(=O)N[C@H](C(=O)N1CCC[C@H]1c1ncc(-c2cc(F)c3c(c2)OC(c2nc4ccccc4s2)n2c-3cc3cc(-c4cnc([C@@H]5CCCN5C(=O)[C@@H](NC(=O)OC)C(C)C)[nH]4)ccc32)[nH]1)C(C)C` (single isomer, unassigned) [Compound 400] was tested. Which IC50 did it give?
Answer: The IC50 was over 1.67 nM.

Question: `COC(=O)N[C@H](C(=O)N1CCC[C@H]1c1ncc(-c2cc(F)c3c(c2)OC(c2cnc(-c4ccncc4)s2)n2c-3cc3cc(-c4cnc([C@@H]5CCCN5C(=O)[C@@H](NC(=O)OC)C(C)C)[nH]4)ccc32)[nH]1)C(C)C` (single isomer, unassigned) [Compound 410] was tested. Which IC50 did it give?
Answer: Its IC50 is 1.5 nM.

Same assay, conditions: replicon 2B, read-out: 2B IC50

Question: How did the IC50 turn out when `COC(=O)N[C@H](C(=O)N1CCC[C@H]1c1ncc(-c2cc(F)c3c(c2)OC(c2cnc(CC(C)C)s2)n2c-3cc3cc(-c4cnc([C@@H]5CCCN5C(=O)[C@@H](NC(=O)OC)C(C)C)[nH]4)ccc32)[nH]1)C(C)C` (single isomer, unassigned) [Compound 513] was run?
Answer: Its IC50 is 1.21 nM.

System: HCV replicon 1A
Assay: Cell-based HCV Replicon Assay A, replicon 1A
Conditions: Hepatitis C virus
Protocol: as §1, §2, §3, §4

Question: For `COC(=O)N[C@H](C(=O)N1CCC[C@H]1c1ncc(-c2cc(F)c3c(c2)OC(c2cnc(-c4ncccn4)s2)n2c-3cc3cc(-c4cnc([C@@H]5CCCN5C(=O)[C@@H](NC(=O)OC)C(C)C)[nH]4)ccc32)[nH]1)C(C)C` (mixture of isomers) [Compound 411], which IC50 is on record?
Answer: The IC50 was 0.0512 nM.

Question: `COC(=O)N[C@H](C(=O)N1CCC[C@H]1c1ncc(-c2cc(F)c3c(c2)OC(c2sc(C)nc2C(F)(F)F)n2c-3cc3cc(-c4cnc([C@@H]5CCCN5C(=O)[C@@H](NC(=O)OC)C(C)C)[nH]4)ccc32)[nH]1)C(C)C` (mixture of isomers) [Compound 426] was tested. Which IC50 did it give?
Answer: The IC50 was 0.0022 nM.
